Laboratory results published in patent US9994590B2, “Substituted [1,2,4]triazolo[1,5-a]pyrazines as phosphodiesterase inhibitors” (Sunovion Pharamaceuticals Inc., priority 2012, dated 2018).

molecular target: recombinant human PDE-10 enzyme (human PDE-10A) (Homo sapiens (Human), UniProt Q9Y233); test: human PDE-10 inhibition assay (Molecular Devices IMAP PDE Fluorescence Polarization, enzyme assay IC50); type: biochemical; settings: Fluorescein-labeled cAMP/cGMP substrate, 40-minute incubation at 37° C.
Sequence (Q9Y233 whole entry): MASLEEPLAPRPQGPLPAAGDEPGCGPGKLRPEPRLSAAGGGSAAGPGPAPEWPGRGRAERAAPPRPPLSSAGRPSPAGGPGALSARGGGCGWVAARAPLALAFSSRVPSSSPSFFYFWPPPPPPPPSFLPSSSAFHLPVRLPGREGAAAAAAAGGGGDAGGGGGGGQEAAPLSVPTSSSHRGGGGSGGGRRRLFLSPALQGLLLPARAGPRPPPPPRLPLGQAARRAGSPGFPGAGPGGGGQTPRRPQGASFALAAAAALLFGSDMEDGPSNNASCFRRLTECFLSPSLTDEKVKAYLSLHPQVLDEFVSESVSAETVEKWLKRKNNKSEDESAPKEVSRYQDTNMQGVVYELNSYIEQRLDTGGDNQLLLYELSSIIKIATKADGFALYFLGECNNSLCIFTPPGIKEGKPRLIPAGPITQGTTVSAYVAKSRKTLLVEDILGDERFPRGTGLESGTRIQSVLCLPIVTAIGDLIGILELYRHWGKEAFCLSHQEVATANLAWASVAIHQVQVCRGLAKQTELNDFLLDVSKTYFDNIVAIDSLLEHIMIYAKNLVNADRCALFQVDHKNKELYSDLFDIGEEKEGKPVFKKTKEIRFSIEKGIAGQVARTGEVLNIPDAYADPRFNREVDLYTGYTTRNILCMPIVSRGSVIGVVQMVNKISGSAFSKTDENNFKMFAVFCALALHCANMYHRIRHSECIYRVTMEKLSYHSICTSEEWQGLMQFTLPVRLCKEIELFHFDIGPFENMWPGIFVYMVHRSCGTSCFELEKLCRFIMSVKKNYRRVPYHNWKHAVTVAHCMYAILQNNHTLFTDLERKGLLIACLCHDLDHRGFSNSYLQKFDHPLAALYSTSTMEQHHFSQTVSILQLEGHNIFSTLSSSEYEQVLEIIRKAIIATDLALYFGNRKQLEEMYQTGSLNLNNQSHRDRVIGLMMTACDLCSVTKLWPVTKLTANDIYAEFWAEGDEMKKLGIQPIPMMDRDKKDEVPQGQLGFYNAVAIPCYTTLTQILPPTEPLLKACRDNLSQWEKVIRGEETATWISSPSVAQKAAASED
Procedure: In one embodiment, the compounds provided herein were assayed for their ability to inhibit human PDE-10A. In one embodiment, the activities of the compounds were determined using the Molecular Devices IMAP PDE Fluorescence Polarization assay using recombinant human PDE-10 enzyme expressed in a baculoviral system. Briefly, 10 μL of a compound (0.2 nM-20 μM) was added to either a 96-well half area black plate or a 384-well black plate along with 10 μL of Fluorescein-labeled cAMP/cGMP substrate as per manufacturer's instructions and 10 μL of PDE enzyme (activity 0.1 U). Following a 40-minute incubation at 37° C., 60 μL of IMAP binding reagent was added. The plate was then read on a Perkin Elmer Victor (480-535 nm). The data was analyzed using Prism Software (GraphPad Inc, San Diego, Calif.).

Structure (SMILES) | IC50 [nM]
Cc1ncc(C)n2nc(C3CC3c3nc(-c4ccccc4)cn3C)nc12 (stereo not shown) [Compound 19, 5,8-Dimethyl-2-(2-(1-methyl-4-phenyl-1H-imidazol-2-yl)cyclopropyl)-[1,2,4]triazolo[1,5-a]pyrazine] | 10 to 100
Cc1cccn2cc(C3CC3c3cn4cccc(C)c4n3)nc12 (stereo not shown) [Compound 8, 1,2-Bis(8-methylimidazo[1,2-a]pyridin-2-yl)cyclopropane] | > 500
Cn1c([C@H]2C[C@@H]2c2ccc3ccccc3n2)nc2c3cccnc3ccc21 (single isomer, unassigned) [Compound 21] | 10 to 100
Cc1ncc(C)n2nc(C3CC3c3nc4c5ccccc5ccn4c3C)nc12 (stereo not shown) [Compound 3] | ≤ 10
Cc1ncc(C)n2nc(C3CC3c3nc4c5cccnc5ccn4c3C)nc12 (stereo not shown) [Compound 1, 2-(2-(5,8-Dimethyl-[1,2,4]triazolo[1,5-a]pyrazin-2-yl)cyclopropyl)-3-methylimidazo[2,1-f][1,6]naphthyridine] | ≤ 10

More lines, now with the values ahead:

IC50 [nM] | Structure (SMILES)
10 to 100 | COc1cc(C)cn2c(C)c(C3CC3c3nc4c(C)ncc(C)n4n3)nc12 (racemic) [Compound 36, (±)-2-(2-(8-methoxy-3,6-dimethylimidazo[1,2-a]pyridin-2-yl)cyclopropyl)-5,8-dimethyl-[1,2,4]triazolo[1,5-a]pyrazine]
100 to 500 | Cc1ncc(C)n2nc(C3CC3c3nc4c(OC(F)F)cccn4c3C)nc12 (racemic) [Compound 31, (±)-2-(2-(8-(difluoromethoxy)-3-methylimidazo[1,2-a]pyridin-2-yl)cyclopropyl)-5,8-dimethyl-[1,2,4]triazolo[1,5-a]pyrazine]
100 to 500 | Cc1ncc(C)n2nc(C3CCC3c3cn4ccc5c(c4n3)OCCO5)nc12 (racemic) [Compound 38, (±)-9-(2-(5,8-dimethyl-[1,2,4]triazolo[1,5-a]pyrazin-2-yl)cyclobutyl)-2,3-dihydro-[1,4]dioxino[2,3-c]imidazo[1,2-a]pyridine]
10 to 100 | Cc1ncc(C)n2nc(C3CC3c3cn4ccc5c(c4n3)OCCO5)nc12 (racemic) [Compound 39, (±)-9-(2-(5,8-dimethyl-[1,2,4]triazolo[1,5-a]pyrazin-2-yl)cyclopropyl)-2,3-dihydro-[1,4]dioxino[2,3-c]imidazo[1,2-a]pyridine]
10 to 100 | COc1cc(OC)c2nc(C3CC3c3nc4c(C)ncc(C)n4n3)c(C)n2c1 (racemic) [Compound 37, (±)-2-(2-(6,8-dimethoxy-3-methylimidazo[1,2-a]pyridin-2-yl)cyclopropyl)-5,8-dimethyl-[1,2,4]triazolo[1,5-a]pyrazine]
